These compounds were tested against T1, KRAS G12C 1-169, his-tagged protein, GDP-loaded (Homo sapiens, UniProt P01116, G12C) (assay: Biochemical assay: covalent binding to KRAS G12C analyzed by mass spectrometry). Conditions: compounds 1-47, measured at 24 h.
T1 construct: KRAS G12C 1-169, his-tagged protein, GDP-loaded
Description: Compounds were tested for activity as follows:
Compounds were diluted to 50× final test concentration in DMSO in 96-well storage plates. […] Reactions were mixed carefully and thoroughly by pipetting up/down with a 200 μl multi-channel pipettor. […] 5 μl of 2% formic acid (Fisher cat#A117) in DI H2O was then added to each well followed by mixing with a pipette. The plate was then resealed with aluminum seal and stored on dry ice until analyzed as described below.
The above described assays were analyzed by mass spectrometry according to the following procedure:
The MS instrument is set to positive polarity, 2 GHz resolution, and low mass (1700) mode and allowed to equilibrate for 30 minutes. The instrument is then calibrated, switched to acquisition mode and the appropriate method loaded.
After another 30 minute equilibration time, a blank batch (i.e., buffer) is run to ensure equipment is operating properly. The samples are thawed at 37° C. for 10 minutes, briefly centrifuged, and transfer to the bench top. Wells A1 and H12 are spiked with 1 μL 500 μM internal standard peptide, and the plates centrifuged at 2000×g for 5 minutes. The method is then run and masses of each individual well recorded.
The masses (for which integration data is desired) for each well are pasted into the platemap and exported from the analysis. Masses for the internal standards are exported as well. The data at 50 ppm is extracted for the +19 charge state, and identity of well A1 is assigned using the internal standard spike and integrated. Peak data is exported as a TOF list and the above steps are repeated individually, for the +20, 21, 22, 23, 24, and 25 charge states.

T1 sequence (P01116 1-169 isoform P01116-2 G12C): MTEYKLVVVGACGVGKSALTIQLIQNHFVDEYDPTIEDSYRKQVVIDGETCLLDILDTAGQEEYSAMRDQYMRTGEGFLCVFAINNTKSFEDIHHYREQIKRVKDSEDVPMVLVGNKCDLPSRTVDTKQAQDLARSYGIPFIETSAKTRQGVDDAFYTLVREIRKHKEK

SMILES | Binding %
C=CC(=O)N1CCN(c2ncnc3cc(Cl)c(-c4ccc(Cl)c(Cl)c4)cc23)CC1 [Compound I-7, 1-(4-(7-chloro-6-(3,4-dichlorophenyl)quinazolin-4-yl)piperazin-1-yl)prop-2-en-1-one] | ++++ (++++indicates binding activity greater than 75%)
C=CC(=O)N1CCN(c2ncnc3cc(Cl)c(-c4ccccc4C#N)cc23)CC1 [Compound I-8, 2-(4-(4-acryloylpiperazin-1-yl)-7-chloroquinoazlin-6-yl)benzonitrile] | ++ (++indicates binding activity greater than 25% and up to 50%)
C=CC(=O)N1CCN(c2ncnc3cc(Cl)c(-c4cc(Cl)ccc4Cl)cc23)CC1 [Compound I-9, 1-(4-(7-chloro-6-(2,5-dichlorophenyl)quinazolin-4-yl)piperazain-1-yl)prop-2-en-1-one] | +++ (+++indicates binding activity greater than 50% and up to 75%)
C=CC(=O)N1CCN(c2ncnc3cc(Cl)c(-c4cc(Cl)ccc4O)cc23)CC1 [Compound I-10, 1-(4-(7-chloro-6-(5-chloro-2-hydroxyphenyl)quinazolin-4-yl)piperazin-1-yl)prop-2-en-1-one] | ++ (++indicates binding activity greater than 25% and up to 50%)
C=CC(=O)N1CCN(c2ncnc3cc(Cl)c(-c4ccc(Cl)cc4O)cc23)CC1 [Compound I-11, 1-(4-(7-chloro-6-(4-chloro-2-hydroxyphenyl)quinoazlin-4-yl)piperazin-1-yl)prop-2-en-1-one] | ++++ (++++indicates binding activity greater than 75%)
C=CC(=O)N1CCN(c2ncnc3cc(Cl)c(-c4ccc(O)cc4)cc23)CC1 [Compound I-12, 1-(4-(7-chloro-6-(4-hydroxyphenyl)quinazolin-4-yl)piperazin-1-yl)prop-2-en-1-one] | + (+indicates binding activity from 5% to 25%)
C=CC(=O)N1CCN(c2ncnc3cc(Cl)c(-c4ccc(Cl)cc4OC)cc23)CC1 [Compound I-13, 1-(4-(7-chloro-6-(4-chloro-2-methoxyphenyl)quinoazlin-4-yl)piperazin-1-yl)prop-2-en-1-one] | ++ (++indicates binding activity greater than 25% and up to 50%)
C=CC(=O)N1CCN(c2ncnc3cc(Cl)c(-c4cccc(O)c4)cc23)CC1 [Compound I-14, 1-(4-(7-chloro-6-(3-hydroxyphenyl)quinazolin-4-yl)piperazin-1-yl)prop-2-en-1-one] | ++ (++indicates binding activity greater than 25% and up to 50%)
C=CC(=O)N1CCN(c2ncnc3cc(Cl)c(-c4ccccc4O)cc23)CC1 [Compound I-15, 1-(4-(7-chloro-6-(2-hydroxyphenyl)quinoazlin-4-yl)piperazin-1-yl)prop-2-en-1-one] | +++ (+++indicates binding activity greater than 50% and up to 75%)
C=CC(=O)N1CCN(c2ncnc3cc(Cl)c(-c4ccc(C#N)cc4)cc23)CC1 [Compound I-16, 4-(4-(4-acryloylpiperazin-1-yl)-7-chloroquinazolin-6-yl)benzonitrile] | ++ (++indicates binding activity greater than 25% and up to 50%)
C=CC(=O)N1CCN(c2ncnc3cc(Cl)c(-c4ccncc4)cc23)CC1 [Compound I-17, 1-(4-(7-chloto-6-(pyridin-4-yl)quinazolin-4-yl)piperazin-1-yl)prop-2-en-1-one] | + (+indicates binding activity from 5% to 25%)
C=CC(=O)N1CCN(c2ncnc3cc(Cl)c(-c4ccccc4)cc23)CC1 [Compound I-18, 1-(4-(7-chloro-6-phenylquinazolin-4-yl)piperazin-1-yl)prop-2-en-1-one] | ++ (++indicates binding activity greater than 25% and up to 50%)
C=CC(=O)N1CCN(c2ncnc3cc(Cl)c(-c4cccc(C#N)c4)cc23)CC1 [Compound I-19, 3-(4-(4-acryloylpiperazin-1-yl)-7-chloroquinazolin-6-yl)benzonitrile] | ++ (++indicates binding activity greater than 25% and up to 50%)
C=CC(=O)N1CCN(c2ncnc3cc(Cl)c(-c4cccnc4)cc23)CC1 [Compound I-20, 1-(4-(7-chloro-6-(pyridin-3-yl)quinazolin-4-yl)piperazin-1-yl)prop-2-en-1-one] | + (+indicates binding activity from 5% to 25%)
C=CC(=O)N1CCN(c2ncnc3cc(Cl)c(-c4cccs4)cc23)CC1 [Compound I-21, 1-(4-(7-chloro-6-(thiophen-2-yl)quinazolin-4-yl)piperazin-1-yl)prop-2-en-1-one] | +++ (+++indicates binding activity greater than 50% and up to 75%)
C=CC(=O)N1CCN(c2ncnc3cc(Cl)c(-c4cc(F)ccc4Cl)cc23)CC1 [Compound I-23, 1-(4-(7-chloro-6-(2-chloro-5-fluorophenyl)quinazolin-4-yl)piperazin-1-yl)prop-2-en-1-one] | ++ (++indicates binding activity greater than 25% and up to 50%)

SMILES | Binding %
C=CC(=O)N1CCN(c2nccc3cc(Cl)c(-c4ccccc4Cl)cc23)CC1 [Compound I-24, 1-(4-(6-chloro-7-(2-chlorophenyl)isoquinolin-1-yl)piperazin-1-yl)prop-2-en-1-one] | + (+indicates binding activity from 5% to 25%)
CN(C)C/C=C/C(=O)N1CCN(c2ncnc3cc(Cl)c(-c4ccccc4Cl)cc23)CC1 [Compound I-25, (E)-1-(4-(7-chloro-6-(2-chlorophenyl)quinazolin-4-yl)piperazin-1-yl)-4-(dimethylamino)but-2-en-1-one] | ++ (++indicates binding activity greater than 25% and up to 50%)
C=CC(=O)N1CCN(c2ncnc3cc(Cl)c(-c4ccc(C)s4)cc23)CC1 [Compound I-26, 1-(4-(7-chloro-6-(5-methylthiophen-2-yl)quinazolin-4-yl)piperazin-1-yl)prop-2-en-1-one] | ++ (++indicates binding activity greater than 25% and up to 50%)
C=CC(=O)N1CCN(c2ccnc3cc(Cl)c(-c4ccccc4Cl)cc23)CC1 [Compound I-27, 1-(4-(7-chloro-6-(2-chlorophenyl)quinolin-4-yl)piperazin-1-yl)prop-2-en-1-one] | ++ (++indicates binding activity greater than 25% and up to 50%)
C=CC(=O)N1CCN(c2ncnc3[nH]cc(-c4ccccc4Cl)c23)CC1 [Compound I-28, 1-(4-(5-(2-chlorophenyl)-7H-pyrrolo[2,3-d]pyrimidin-4-yl)piperazin-1-yl)prop-2-en-1-one] | + (+indicates binding activity from 5% to 25%)
C=CC(=O)NC1CN(c2ncnc3cc(Cl)c(-c4ccccc4Cl)cc23)C1 [Compound I-29, N-(1-(7-chloro-6-(2-chlorophenyl)quinazolin-4-yl)azetidin-3-yl)acrylamide] | + (+indicates binding activity from 5% to 25%)
C=CC(=O)N1CC(Nc2ncnc3cc(Cl)c(-c4ccccc4Cl)cc23)C1 [Compound I-30, 1-(3-(7-chloro-6-(2-chlorophenyl)quinazolin-4-ylamino)azetidin-1-yl)prop-2-en-1-one] | + (+indicates binding activity from 5% to 25%)
C=CC(=O)N1CCC(Nc2n[nH]c3cc(Cl)c(-c4ccccc4Cl)cc23)CC1 [Compound I-31, 1-(4-(6-chloro-5-(2-chlorophenyl)-1H-indazol-3-ylamino)piperidin-1-yl)prop-2-en-1-one] | + (+indicates binding activity from 5% to 25%)
C=CC(=O)N1CCN(c2ncnc3cc(Cl)c(N4CCOCC4)cc23)CC1 [Compound I-32, 1-(4-(7-chloro-6-morpholinoquinazolin-4-yl)piperazin-1-yl)prop-2-en-1-one] | + (+indicates binding activity from 5% to 25%)
C=CC(=O)N1CCN(c2ncnc3cc(F)c(-c4ccccc4Cl)cc23)CC1 [Compound I-33, 1-(4-(6-(2-chlorophenyl)-7-fluoroquinazolin-4-yl)piperazin-1-yl)prop-2-en-1-one] | ++ (++indicates binding activity greater than 25% and up to 50%)
C=CC(=O)N1CCN(c2ncnc3cc(Cl)c(-c4ccc(Cl)s4)cc23)CC1 [Compound I-34, 1-(4-(7-chloro-6-(5-chlorothiophen-2-yl)quinazolin-4-yl)piperazin-1-yl)prop-2-en-1-one] | +++ (+++indicates binding activity greater than 50% and up to 75%)
C=CC(=O)N1CCN(c2ncc3cccc(-c4ccccc4Cl)c3n2)CC1 [Compound I-35, 1-(4-(8-(2-chlorophenyl)quinazolin-2-yl)piperazin-1-yl)prop-2-en-1-one] | + (+indicates binding activity from 5% to 25%)
C=CC(=O)N1CCC(c2ncnc3cc(Cl)c(-c4ccccc4Cl)cc23)CC1 [Compound I-36, 1-(4-(7-chloro-6-(2-chlorophenyl)quinazolin-4-yl)piperidin-1-yl)prop-2-en-1-one] | + (+indicates binding activity from 5% to 25%)
C=CC(=O)N1CCN(c2nccc3cc(Cl)c(-c4ccc(Cl)cc4)cc23)CC1 [Compound I-37, 1-(4-(6-chloro-7-(4-chlorophenyl)isoquinolin-1-yl)piperazin-1-yl)prop-2-en-1-one] | ++ (++indicates binding activity greater than 25% and up to 50%)
C=CC(=O)N1CCN(c2ncnc3cc(C4CC4)c(-c4ccc(C5CC5)cc4)cc23)CC1 [Compound I-41, 1-(4-(7-cyclopropyl-6-(4-cyclopropylphenyl)quinazolin-4-yl)piperazin-1-yl)prop-2-en-1-one] | + (+indicates binding activity from 5% to 25%)
